Test system: Acinetobacter baumannii ATCC17961
Experiment: Antimicrobial susceptibility testing: 90% growth inhibitory concentration (IC90) determination
Assay type: cell-based
Conditions: ATCC17961, 90% growth inhibitory concentration, Iso-Sensitest broth, OD 600 nm over 16 h, 35±2° C., read-out: ATCC 17961 IC90
Procedure: Assay Procedures Antimicrobial Susceptibility Testing: 90% Growth Inhibitory Concentration (IC90) Determination
The in vitro antimicrobial activity of the compounds was determined according to the following procedure:
The assay used a 10-points Iso-Sensitest broth medium to measure quantitatively the in vitro activity of the compounds against Acinetobacter baumannii ATCC17961.
Stock compounds in DMSO were serially twofold diluted (e.g. range from 50 to 0.097 μM final concentration) in 384 wells microtiter plates and inoculated with 49 μl the bacterial suspension in Iso-Sensitest medium to have a final cell concentration of ˜5×10^5 CFU/ml in a final volume/well of 50 μl/well. Microtiter plates were incubated at 35±2° C.
Bacterial cell growth was determined with the measurement of optical density at λ=600 nm each 20 minutes over a time course of 16 h. Growth inhibition was calculated during the logarithmic growth of the bacterial cells with determination of the concentration inhibiting 50% (IC50) and 90% (IC90) of the growth.
Table 1 provides the 90% growth inhibitory concentrations (IC90) in micromoles per liter of the compounds of present invention obtained against the strain Acinetobacter baumannii ATCC17961.

IC90 [µM] | Compound
0.46 | Cc1n[nH]c2cc(F)c(-c3cnc(C(=O)Nc4ccc(C(=O)N5CCN(C(=O)C[C@@H]6CCNC6)CC5)c(Cl)c4)n3C)cc12 [Example A2, N-[3-chloro-4-[4-[2-[(3S)-pyrrolidin-3-yl]acetyl]piperazine-1-carbonyl]phenyl]-5-(6-fluoro-3-methyl-1H-indazol-5-yl)-1-methyl-imidazole-2-carboxamide]
0.31 | CN(C)c1ccc(-c2cnc(C(=O)Nc3ccc(C(=O)N4CCN(C(=O)C5CCNCC5)CC4)c(Cl)c3)n2C)c(C(F)(F)F)n1 [Example A6, N-[3-chloro-4-[4-(piperidine-4-carbonyl)piperazine-1-carbonyl]phenyl]-5-[6-(dimethylamino)-2-(trifluoromethyl)-3-pyridyl]-1-methyl-imidazole-2-carboxamide]
0.58 | CN(C)c1ncc(-c2cnc(C(=O)Nc3ccc(C(=O)N4CCN(C(=O)C[C@@H]5CCNC5)CC4)c(Cl)c3)n2C)c(C(F)(F)F)n1 [Example A9, N-[3-chloro-4-[4-[2-[(3S)-pyrrolidin-3-yl]acetyl]piperazine-1-carbonyl]phenyl]-5-[2-(dimethylamino)-4-(trifluoromethyl)pyrimidin-5-yl]-1-methyl-imidazole-2-carboxamide]
1.7 | CN(C)c1nc(F)c(-c2cnc(C(=O)Nc3ccc(C(=O)NCCCCCCN)c(Cl)c3)n2C)cc1F [Example B1, N-[4-(6-aminohexylcarbamoyl)-3-chloro-phenyl]-5-[6-(dimethylamino)-2,5-difluoro-3-pyridyl]-1-methyl-imidazole-2-carboxamide]
0.53 | CN(C)CC(=O)N1CCN(C(=O)c2ccc(NC(=O)c3ncc(-c4cc(F)c(N(C)C)nc4F)n3C)cc2Cl)CC1 [Example C1, N-[3-chloro-4-[4-[2-(dimethylamino)acetyl]piperazine-1-carbonyl]phenyl]-5-[6-(dimethylamino)-2,5-difluoro-3-pyridyl]-1-methyl-imidazole-2-carboxamide]
2.5 | Cc1cc(NC(=O)c2ncc(-c3cc(F)c(N(C)C)nc3F)n2C)ccc1C(=O)N1CCN(C(=O)CN(C)C)CC1 [Example C2, N-[4-[4-[2-(dimethylamino)acetyl]piperazine-1-carbonyl]-3-methyl-phenyl]-5-[6-(dimethylamino)-2,5-difluoro-3-pyridyl]-1-methyl-imidazole-2-carboxamide]
0.65 | CN(C)c1nc(F)c(-c2cnc(C(=O)Nc3ccc(C(=O)N4CCN(C(=O)C[N+](C)(C)C)CC4)c(Cl)c3)n2C)cc1F [Example D1, [2-[4-[2-chloro-4-[[5-[6-(dimethylamino)-2,5-difluoro-3-pyridyl]-1-methyl-imidazole-2-carbonyl]amino]benzoyl]piperazin-1-yl]-2-oxo-ethyl]-trimethyl-ammonium]
4.2 | CN(C)c1nc(F)c(-c2cnc(C(=O)Nc3ccc(C(=O)NCCCCCC[N+](C)(C)C)c(Cl)c3)n2C)cc1F [Example D3, 6-[[2-chloro-4-[[5-[6-(dimethylamino)-2,5-difluoro-3-pyridyl]-1-methyl-imidazole-2-carbonyl]amino]benzoyl]amino]hexyl-trimethyl-ammonium]

Further lines, the molecule ahead of its results:

Compound | IC90 [µM]
Cn1c(-c2ccc3[nH]nc(C(F)(F)F)c3c2)cnc1C(=O)Nc1ccc(C(=O)N2CCN(C(=O)C[C@@H]3CCNC3)CC2)c(Cl)c1 [Example A3, N-[3-chloro-4-[4-[2-[(3S)-pyrrolidin-3-yl]acetyl]piperazine-1-carbonyl]phenyl]-1-methyl-5-[3-(trifluoromethyl)-1H-indazol-5-yl]imidazole-2-carboxamide] | 0.23
Cn1c(-c2ccc(Cl)nc2Cl)cnc1C(=O)Nc1ccc(C(=O)N2CCN(C(=O)C3CCNCC3)CC2)c(Cl)c1 [Example A5, N-[3-chloro-4-[4-(piperidine-4-carbonyl)piperazine-1-carbonyl]phenyl]-5-(2,6-dichloro-3-pyridyl)-1-methyl-imidazole-2-carboxamide] | 0.72
COc1ccc(-c2cnc(C(=O)Nc3ccc(C(=O)N4CCN(C(=O)C5CCNCC5)CC4)c(Cl)c3)n2C)c(OC)n1 [Example A7, N-[3-chloro-4-[4-(piperidine-4-carbonyl)piperazine-1-carbonyl]phenyl]-5-(2,6-dimethoxy-3-pyridyl)-1-methyl-imidazole-2-carboxamide] | 0.46
COc1cc(-c2cnc(C(=O)Nc3ccc(C(=O)N4CCN(C(=O)C5CCNCC5)CC4)c(Cl)c3)n2C)c(Cl)cn1 [Example A8, 5-(5-chloro-2-methoxy-4-pyridyl)-N-[3-chloro-4-[4-(piperidine-4-carbonyl)piperazine-1-carbonyl]phenyl]-1-methyl-imidazole-2-carboxamide] | 0.57
COc1ncc(-c2cnc(C(=O)Nc3ccc(C(=O)N4CCN(C(=O)C5CCNCC5)CC4)c(Cl)c3)n2C)c(C(F)(F)F)n1 [Example A10, N-[3-chloro-4-[4-(piperidine-4-carbonyl)piperazine-1-carbonyl]phenyl]-5-[2-methoxy-4-(trifluoromethyl)pyrimidin-5-yl]-1-methyl-imidazole-2-carboxamide] | 1.4
Cn1c(-c2c(Cl)ccc3[nH]ccc23)cnc1C(=O)Nc1ccc(C(=O)N2CCN(C(=O)C[C@@H]3CCNC3)CC2)c(Cl)c1 [Example A11, 5-(5-chloro-1H-indol-4-yl)-N-[3-chloro-4-[4-[2-[(3S)-pyrrolidin-3-yl]acetyl]piperazine-1-carbonyl]phenyl]-1-methyl-imidazole-2-carboxamide] | 0.29
Cn1c(-c2cccc3[nH]ccc23)cnc1C(=O)Nc1ccc(C(=O)N2CCN(C(=O)C3CCNCC3)CC2)c(Cl)c1 [Example A12, N-[3-chloro-4-[4-(piperidine-4-carbonyl)piperazine-1-carbonyl]phenyl]-5-(1H-indol-4-yl)-1-methyl-imidazole-2-carboxamide] | 0.49
Cn1c(-c2cccc3c2ccn3C)cnc1C(=O)Nc1ccc(C(=O)N2CCN(C(=O)C3CCNCC3)CC2)c(Cl)c1 [Example A13, N-[3-chloro-4-[4-(piperidine-4-carbonyl)piperazine-1-carbonyl]phenyl]-1-methyl-5-(1-methylindol-4-yl)imidazole-2-carboxamide] | 1.1
COc1ccc(-c2cnc(C(=O)Nc3ccc(C(=O)N4CCN(C(=O)C[C@@H]5CCNC5)CC4)c(Cl)c3)n2C)c(C(F)(F)F)n1 [Example A14, N-[3-chloro-4-[4-[2-[(3S)-pyrrolidin-3-yl]acetyl]piperazine-1-carbonyl]phenyl]-5-[6-methoxy-2-(trifluoromethyl)-3-pyridyl]-1-methyl-imidazole-2-carboxamide] | 0.23
COc1cc(Cl)c(-c2cnc(C(=O)Nc3ccc(C(=O)N4CCN(C(=O)C5CCNCC5)CC4)c(Cl)c3)n2C)cn1 [Example A15, 5-(4-chloro-6-methoxy-3-pyridyl)-N-[3-chloro-4-[4-(piperidine-4-carbonyl)piperazine-1-carbonyl]phenyl]-1-methyl-imidazole-2-carboxamide] | 0.66
COc1ccc(-c2cnc(C(=O)Nc3ccc(C(=O)N4CCN(C(=O)C5CCNCC5)CC4)c(Cl)c3)n2C)c(C(F)(F)F)n1 [Example A16, N-[3-chloro-4-[4-(piperidine-4-carbonyl)piperazine-1-carbonyl]phenyl]-5-[6-methoxy-2-(trifluoromethyl)-3-pyridyl]-1-methyl-imidazole-2-carboxamide] | 0.28
COc1ccc(-c2cnc(C(=O)Nc3ccc(C(=O)N4CCN(C(=O)[C@@H]5C[C@@H](O)CN5)CC4)c(Cl)c3)n2C)c(C(F)(F)F)n1 [Example A17, N-[3-chloro-4-[4-[(2S,4R)-4-hydroxypyrrolidine-2-carbonyl]piperazine-1-carbonyl]phenyl]-5-[6-methoxy-2-(trifluoromethyl)-3-pyridyl]-1-methyl-imidazole-2-carboxamide] | 0.36
COc1ccc(-c2cnc(C(=O)Nc3ccc(C(=O)N4CCN(C(=O)[C@@H]5[C@@H]6CNC[C@@H]65)CC4)c(Cl)c3)n2C)c(C(F)(F)F)n1 [Example A18, N-[4-[4-[(1R,5S)-3-azabicyclo[3.1.0]hexane-6-carbonyl]piperazine-1-carbonyl]-3-chloro-phenyl]-5-[6-methoxy-2-(trifluoromethyl)-3-pyridyl]-1-methyl-imidazole-2-carboxamide] | 0.26
COc1ccc(-c2cnc(C(=O)Nc3ccc(C(=O)N4CCN(C(=O)C5CCNCC5)CC4)c(Cl)c3)n2C)c(C(F)F)n1 [Example A19, N-[3-chloro-4-[4-(piperidine-4-carbonyl)piperazine-1-carbonyl]phenyl]-5-[2-(difluoromethyl)-6-methoxy-3-pyridyl]-1-methyl-imidazole-2-carboxamide] | 0.91
Cn1c(-c2ccc3c(c2)OCCO3)cnc1C(=O)Nc1ccc(C(=O)N2CCN(C(=O)C3CCNCC3)CC2)c(Cl)c1 [Example A20, N-[3-chloro-4-[4-(piperidine-4-carbonyl)piperazine-1-carbonyl]phenyl]-5-(2,3-dihydro-1,4-benzodioxin-6-yl)-1-methyl-imidazole-2-carboxamide] | 0.52

Same assay, conditions: ATCC17961, 16 h, read-out: ATCC 17961 IC90 [μM]

Compound | IC90 [µM]
Cn1c(-c2c(F)ccc3[nH]ccc23)cnc1C(=O)Nc1ccc(C(=O)N2CCN(C(=O)C[C@@H]3CCNC3)CC2)c(Cl)c1 [Example A1, N-[3-chloro-4-[4-[2-[(3S)-pyrrolidin-3-yl]acetyl]piperazine-1-carbonyl]phenyl]-5-(5-fluoro-1H-indol-4-yl)-1-methyl-imidazole-2-carboxamide] | 0.23
